According to article doi:10.1101/2022.09.13.507756v1 (biorxiv, 2022):
Like-named read-outs stand apart in the source and are kept apart here.

How the values were obtained:
[1] = tested on: AncCDT-5; conditions: 50 mM Na2HPO4, 25 °C, 100 nM enzyme
[2] = tested on: AncCDT-5; conditions: 50 mM Na2HPO4, 25 °C, 100 nM enzyme; prephenate dehydratase reaction

Q: How did the Km [1] turn out when `O=C(O)C(=O)CC1(C(=O)O)C=CC(O)C=C1` (centres unmarked) [prephenate] was run?
A: The Km was 178 ± 27.1 µM.

Q: What about the Km [2] of the same compound?
A: Its Km is 169 ± 22.9 µM.
